# Results reported in patent US11318149B2, “Compositions and methods for inhibiting biofilm-forming bacteria” (Board of Trustees of Michigan State University, priority 2018, dated 2022).
# Where two headings read alike, the source gives them in different places.
# Legend:
# Format in all cases: cell-based, Pseudomonas aeruginosa
# [1] = system: P. aeruginosa planktonically grown cells; assay: microbe, parasite or virus in culture
# Procedure: To measure antimicrobial susceptibility of planktonic cells, MICs were determined using the broth microdilution technique, as described previously. Briefly, microdilutions were made in a 96-well plate in 1% MHB diluted in Dulbecco's Phosphate Buffered Saline with magnesium and calcium (DPBS, Sigma-Aldrich). Cells were combined with the serial dilutions in the 96-well plate at a concentration of ˜[…] CFU/mL in 10% MHB. The plates were then incubated for 24-hrs at 35° C. in a humidified chamber with agitation at 150 RPM. MIC breakpoints were chosen as the minimum concentration in which no turbidity greater than background was measured (absorbance at 595 nm), using a SpectraMax M5 microplate spectrophotometer system (Molecular Devices Sunnyvale, Calif.
# [2] = system: 24-hr old PAO1 biofilms; assay: Biofilm susceptibility testing (MBEC assay, BacTiter-Glo); settings: for percent of cells within 24-hr biofilms killed / fold reduction of viable cells versus untreated biofilm / percent of P. aeruginosa cells in the biofilm killed / number of viable cells within the biofilms (BacTiter-Glo), mean: 6-hrs; for fold reduction of viable cells versus untreated biofilm / percent of P. aeruginosa cells in the biofilm killed: oxyclozanide 100 μM, tobramycin 500 μM, gentamicin/streptomycin/tetracycline 100 μM, alone or in combination; for time killing curve result at 2 and 4 hrs, single agent: oxyclozanide or tobramycin alone; for onset of action: time killing curves, antibiotic alone or with oxyclozanide (100 μM); for time required to show antimicrobial activity: 24-hr biofilms, melittin 100 μM, tobramycin 400 μM; for EC50: Pseudomonas aeruginosa, read-out: half effective concentration 50 (EC50) of tobramycin
# Procedure: (§1) To measure antimicrobial susceptibility of biofilms, the MBEC™ assay was used (Innovotech) as previously described. This assay consists of a lid with 96 polystyrene pegs used to grow biofilms. Briefly, an overnight culture was washed and diluted to an OD600 of 0.001 and seeded into a MBEC™ plate. To grow biofilms, the plate was then incubated for 24-hrs at 35° C. in a humidified chamber with agitation at 150 RPM. After 24-hrs, the lid was then transferred to a 96-well plate filled with DPBS and washed for 5-mins to remove non-adherent cells. The lid was transferred to the 96-well treatment plate and incubated for the indicated time points at 35° C. without agitation. After the incubation, the MBEC™ lid was washed and transferred to a black 96-well ViewPlate (PerkinElmer) filled with BacTiter-Glo™ to enumerate cell viability and then luminescence was measured using a EnVison Multilabel Plate Reader (PerkenElmer, Waltham, Mass.). Percent killing was calculated as:
# [formula] Dose response curves were performed in the same manner. Crystal Violet Staining
# Time killing curves were performed by growing 24-hr old biofilms on MBEC™ plates as previously described. Briefly, 100 μM of oxyclozanide and 500 μM of tobramycin were used to test for synergy at high concentrations of tobramycin, mirroring what is done clinically. The peg-lid was briefly washed in DPBS to remove non-adherent cells and transferred to a treatment plate and incubated at 35° C. for 8-hrs. At 0, 2, 4, 6, and 8-hrs pegs were collected and BacTiter-Glo™ was used to determine cell viability.
# [3] = system: P. aeruginosa clinical isolates from CF patients grown in biofilms; assay: Biofilm susceptibility of CF clinical isolates (MBEC, BacTiter-Glo); settings: 100 μM oxyclozanide; 6-hrs
# Procedure: 24-hr old biofilms grown on MBEC plates were treated with oxyclozanide (100 μM), or tobramycin (500 μM), alone and in combination for 6-hrs. The number of viable cells within the biofilms were quantified by BacTiter-Glo™. The assay was performed three times in triplicate. The results represent means plus the SEM. A one-way ANOVA followed by Bonferroni's multiple comparison post-hoc test was used to determine statistical significance compared to tobramycin alone (*, p<0.05, NS, not significant).
# as §1, with “The lid was transferred to the 96-well treatment plate and incubated for the indicated time points at 35° C. without agitation.” left out, “as: […]” for “as:”
# [4] = system: P. aeruginosa biofilms; assay: Crystal violet staining of biofilm biomass (biofilm dispersal); settings: for effect on biofilm biomass / dispersal (crystal violet): six hour exposure, 50 μM-400 μM, alone and in combination
# Procedure: To study biofilm dispersal under static conditions, crystal violet staining was performed as previously described. Briefly, 24-hr old biofilms formed on MBEC™ plates, as described above, were stained with crystal violet after a 6-hr incubation with oxyclozanide and tobramycin.
# One possible mechanism by which oxyclozanide enhances tobramycin activity is by inducing biofilm dispersal. To test this, the ability of oxyclozanide and tobramycin to disperse P. aeruginosa biofilms was examined using crystal violet staining of the biofilm biomass after six hour exposure to dilutions of oxyclozanide or tobramycin alone and in combination from 50 μM-400 μM (FIG. 6).
# [5] = system: P. aeruginosa cells within biofilms; assay: TO-PRO-3 staining for permeabilization of biofilm cells; settings: melittin 100 μM, 2 hours
# Procedure: 24-hr old biofilms were treated with melittin (100 μM), or tobramycin (400 μM), alone and in combination for 2 hours. […] Percent values indicate the average relative abundance of events within each gate normalized to the total number of events analyzed, excluding artifacts, aggregates and debris. The experiment was performed two separate times in duplicate. The results are percent averages plus the SEM. A one-way ANOVA followed by Bonferroni's multiple comparison post-hoc test was used to determine statistical significance between tobramycin versus melittin, tobramycin versus the combination, and melittin versus the combination(*, p<0.05).
# [6] = Pseudomonas aeruginosa, read-out: Minimum Inhibitory Concentrations (MIC), +Melittin
# [7] = Pseudomonas aeruginosa, read-out: Minimum Inhibitory Concentrations (MIC), Alone
Molecule,fold reduction of viable cells versus untreated biofilm [2],percent of P. aeruginosa cells in the biofilm killed [2],"time killing curve result at 2 and 4 hrs, single agent [2]",effect on biofilm biomass / dispersal (crystal violet) [4],"Minimum Inhibitory Concentrations (MIC), Alone [1]",onset of action [2],"MIC [1, 6]","MIC [1, 7]",time required to show antimicrobial activity [2],further results
O=C(Nc1cc(Cl)cc(Cl)c1O)c1c(O)c(Cl)cc(Cl)c1Cl [oxyclozanide],about 2 fold,44%,no significant killing,did not impact biofilm biomass,,,,,,"effect on the minimum inhibitory concentration of tobramycin, gentamicin, streptomycin, or tetracycline ([1]; planktonically grown cells): no effect; percent of cells within 24-hr biofilms killed ([2]; 400 μM of each agent): ~80%; percent of cells within 24-hr biofilms killed ([2]; oxyclozanide alone between 25 and 200 μM): 20-40%; sensitivity of six clinical isolates to treatment alone [3]: modest sensitivity"
gentamicin,,,,,6.25 to 12.5 µM,4 h,,,,"MIC ([1]; +Melittin, read-out: Minimum Inhibitory Concentrations (MIC), +Melittin): 12.5 µM"
[H]/N=C(/N)N[C@H]1[C@H](O)[C@@H](O)[C@H](O[C@@H]2O[C@@H](C)[C@](O)(C=O)[C@H]2O[C@@H]2O[C@@H](CO)[C@H](O)[C@@H](O)[C@@H]2NC)[C@@H](N/C(N)=N\[H])[C@@H]1O [streptomycin],,,,,,,25 to 50 µM,25 to 50 µM,,"delay in killing activity against 24-hr old biofilms ([2]; antibiotic alone, 100 μM): did not show a delay"
CC[C@H](C)[C@H](NC(=O)CN)C(=O)NCC(=O)N[C@@H](C)C(=O)N[C@H](C(=O)N[C@@H](CC(C)C)C(=O)N[C@@H](CCCCN)C(=O)N[C@H](C(=O)N[C@@H](CC(C)C)C(=O)N[C@H](C(=O)N[C@H](C(=O)NCC(=O)N[C@@H](CC(C)C)C(=O)N1CCC[C@H]1C(=O)N[C@@H](C)C(=O)N[C@@H](CC(C)C)C(=O)N[C@H](C(=O)N[C@@H](CO)C(=O)N[C@@H](Cc1c[nH]c2ccccc12)C(=O)N[C@H](C(=O)N[C@@H](CCCCN)C(=O)N[C@@H](CCCNC(=N)N)C(=O)N[C@@H](CCCCN)C(=O)N[C@@H](CCCNC(=N)N)C(=O)N[C@@H](CCC(N)=O)C(=O)N[C@@H](CCC(N)=O)C(N)=O)[C@@H](C)CC)[C@@H](C)CC)[C@@H](C)O)[C@@H](C)O)C(C)C)C(C)C [melittin],,,,,62.5 to 200 µM,,,,2 h,"number of viable cells within the biofilms (BacTiter-Glo), mean ([2]; Tobramycin 0 μM, Melittin 12.5 μM): 5.18E5; number of viable cells within the biofilms (BacTiter-Glo), mean ([2]; Tobramycin 0 μM, Melittin 25 μM): 4.22E5; number of viable cells within the biofilms (BacTiter-Glo), mean ([2]; Tobramycin 0 μM, Melittin 50 μM): 2.87E5; number of viable cells within the biofilms (BacTiter-Glo), mean ([2]; Tobramycin 0 μM, Melittin 100 μM): 2.51E4; biofilm dispersal (crystal violet) ([4]; 24-hr biofilms treated for 6-hrs): significant biofilm dispersal; permeabilization of cells (TO-PRO-3) [5]: causes permeabilization"
NC[C@H]1O[C@H](O[C@H]2[C@H](O)[C@@H](O[C@H]3O[C@H](CO)[C@@H](O)[C@H](N)[C@H]3O)[C@H](N)C[C@@H]2N)[C@H](N)C[C@@H]1O [tobramycin],about 2 fold,56%,increase in cell number,significantly reduced biofilm biomass,,6 h,3.12 to 6.25 µM,3.12 to 6.25 µM,6 h,"EC50 ([2]; PAO1, in combination with melittin): 16 µM; EC50 ([2]; PAO1, tobramycin alone): 46 µM; number of viable cells within the biofilms (BacTiter-Glo), mean ([2]; Tobramycin 50 μM, Melittin 0 μM): 1.82E5; number of viable cells within the biofilms (BacTiter-Glo), mean ([2]; Tobramycin 100 μM, Melittin 0 μM): 1.91E5; number of viable cells within the biofilms (BacTiter-Glo), mean ([2]; Tobramycin 200 μM, Melittin 0 μM): 2.27E5"
